PubChem BioAssay AID1963957 (Xavier Lab, Infectious Disease and Microbiome Program, …, 2024)
Activity calls are given as the source filed them.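 How the source made its calls: active means significant rise in GFP-LC3 puncta area per cell versus the same autophagy-inducer co-treatment given without compound; inactive means the rest.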

Test system: HeLa GFP-LC3 puncta imaging, 4 h
Assay: autophagy induction assessed by green fluorescent protein-tagged microtubule-associated protein 1 light chain 3 foci, microscopy imaging, HeLa reporter line expressing fluorescent MAP1 light chain 3, co-treatment with rapamycin or Torin1 (AID 1963957)
Conditions: for puncta normalized to Torin1: at 20 µM, stronger effect = higher value

Structure (SMILES)	puncta normalized to Torin1 (no co-treatment)	puncta normalized to Torin1 (with Rapamycin)	puncta normalized to Torin1 (with Torin1)	EC50 (no co-treatment) [µM]	EC50 (with Rapamycin) [µM]	EC50 (with Torin1) [µM]
CCC(C)(C)C(=O)C(=O)N1CCCC[C@H]1C(=O)N[C@H](CCc1ccc(OC)cc1)C(=O)N1[C@@H]2CC[C@H]1CC(Nc1nc(NCCc3sc(N)nc3C)nc(NCc3ccnc(CO)c3)n1)C2 (stereo partly specified)	0.14 (inactive)	1.02	1.59	–	–	–
CS(C)=O	0 (inactive)	–	–	–	–	–
CCC(C)(C)C(=O)C(=O)N1CCCC[C@H]1C(=O)N[C@H](CCc1ccc(OC)cc1)C(=O)N1[C@@H]2CC[C@H]1CC(Nc1nc(NCCc3sc(N)nc3C)nc(NCCn3cnc4ccccc43)n1)C2 (stereo partly specified)	0.49	1.54	2.17	–	–	–
CCC(C)(C)C(=O)C(=O)N1CCCC[C@H]1C(=O)N[C@H](CCc1ccc(OC)cc1)C(=O)N1CC(Nc2nc(NCCc3sc(N)nc3C)nc(NCCn3cnc4ccccc43)n2)C1	0.06 (inactive)	0.85	1.47 (inactive)	–	–	–
CCC(C)(C)C(=O)C(=O)N1CCCC[C@H]1C(=O)N[C@H](CCc1ccc(OC)cc1)C(=O)N1CC[C@H](Nc2nc(NCCc3sc(N)nc3C)nc(N(C)Cc3nnc4n3CCC4)n2)C1	-0.05 (inactive)	0.32 (inactive)	0.72 (inactive)	–	–	–
CO[C@H]1C[C@@H]2CC[C@@H](C)[C@@](O)(O2)C(=O)C(=O)N2CCCC[C@H]2C(=O)O[C@H]([C@H](C)C[C@@H]2CC[C@@H](O)[C@H](OC)C2)CC(=O)[C@H](C)/C=C(\C)[C@@H](O)[C@@H](OC)C(=O)[C@H](C)C[C@H](C)\C=C/C=C/C=C/1C	–	0.39	–	–	–	–
CCC(C)(C)C(=O)C(=O)N1CCCC[C@H]1C(=O)N[C@H](CCc1ccc(OC)cc1)C(=O)N1[C@@H]2CC[C@H]1CC(Nc1nc(NCCc3sc(N)nc3C)nc(N(C)Cc3nnc4n3CCC4)n1)C2 (stereo partly specified)	0.13 (inactive)	0.68 (inactive)	0.98 (inactive)	–	–	–
CCC(=O)N1CCN(c2ccc(-n3c(=O)ccc4cnc5ccc(-c6cnc7ccccc7c6)cc5c43)cc2C(F)(F)F)CC1	–	–	1	–	–	–
CCC(C)(C)C(=O)C(=O)N1CCCC[C@H]1C(=O)N[C@H](CCc1ccc(OC)cc1)C(=O)N1[C@@H]2CC[C@H]1CC(Nc1nc(NCCc3sc(N)nc3C)nc(N3CCn4ncnc4C3)n1)C2 (stereo partly specified)	–	–	–	12	11.5	29.3
